# Results taken from a melting point compilation (Tetko et al.; mined from patent text by program, amines drawn as free bases though some values may be those of a salt).
row,Structure (SMILES),melting point [°C]
1,COc1cc2c(c3c1OC(C)(C)C3)C(c1ccc(=O)n(-c3cccc(-c4ccccn4)n3)c1)=NC(C)(C)C2,231 to 234
2,CONC(=O)Nc1ccc(-c2nc3n(Cc4c(F)cccc4F)cc(C(=O)OC(C)C)c(=O)n3c2CN(C)Cc2ccccc2)cc1,156 to 158
3,CCCCCCCCCCCCSc1nnn(C(C(=O)O)c2ccccc2)n1 (stereo not drawn),64 to 67
4,CC1(C)CCc2c(N3CCOCC3)nc3sc4c(NCc5ccco5)ncnc4c3c2C1,210 to 211
5,Nc1ccc(CCc2nnco2)cc1,73 to 74
6,CCCn1c2ccccc2c2cc(C(=O)CC(C)=O)ccc21,97
7,Cn1c(=O)cc(CCN2CCC(c3c[nH]c4ccccc34)CC2)c2ccccc21,79 to 81
8,CCCCCCCCCCCCCCCCC(N)C(O)CO (stereo not drawn),92 to 93
9,Cc1cc(OCC2CO2)c(N)c([N+](=O)[O-])c1 (stereo not drawn),90 to 91
10,O=C1CC(N2Cc3ccc(F)cc3NC2=O)C(=O)N1 (stereo not drawn),283 to 285
11,COCC(=O)Nc1cccc(C2(C3CCN(C(=O)c4ccc(O)cc4)CC3)N=C(N)N(C)C2=O)c1 (stereo not drawn),184 to 187
12,CCCCCCCC[C@@H](O)C(=O)Nc1c(SC)ccc2ncccc12,119 to 120
13,Cc1nn(C)c2nc3ccccc3c(NCc3ccccc3)c12,105
14,Cc1nnc(N2C(=O)C(O)=C(C(=O)c3ccc(C(C)C)cc3)C2c2ccc(C(F)(F)F)cc2)s1 (stereo not drawn),257
15,CCOC(=O)C1C(=O)c2cc(F)ccc2N=C1c1ccccc1 (stereo not drawn),277 to 279
16,CCOC(=O)c1cc(-c2ccc(F)cc2)[nH]n1,148 to 150
17,COc1cc(NC(=O)OC(C)(C)C)cc(OC)c1SC,124 to 126
18,CNc1nc(NN)ncc1C#N,247 to 249
19,O=C(O)/C=C1\CCc2c(F)cc(Cl)cc21,254 to 256
20,CS(=O)(=O)c1ccc(-c2nn(CCCc3ccccc3)c(=O)cc2-c2ccc(Cl)cc2)cc1,70.2 to 71.6
21,CC(C)Nc1cccnc1N1CCN(C(=O)c2ccc(C(=O)Nc3nncs3)cn2)CC1,260 to 262
22,COc1cc(C(=O)c2ccc(OC)c(OC)c2OC)cc(OC)c1OC,125 to 126
23,COC(=O)C(C(=O)c1ccc(Cc2cn(C)c3ccc(NC(=O)OC4CCCC4)cc23)c(OC)c1)S(=O)(=O)c1ccccc1 (stereo not drawn),65 to 70
24,COc1ccc(-c2nc3ncccc3[nH]2)c2cc(C(C)C)oc12,242
25,COc1c(C2CC2c2ccc(NS(C)(=O)=O)cc2)cc(N2CCC(=O)NC2=O)cc1C(C)(C)C (stereo not drawn),265 to 266

row,Structure (SMILES),melting point [°C]
1,O=C(O)Cc1ccc(OCCNC(=O)C2Cc3ccccc3N2S(=O)(=O)c2ccc(-c3cc(C(F)(F)F)ccc3F)cc2)cc1 (stereo not drawn),81 to 84
2,CCNc1nc(Nc2ccccc2)ncc1C=CC#N,244 to 246
3,Cc1nn(C)c(NN)c1[N+](=O)[O-],177 to 179
4,O=C(CN1CC(F)(F)Cn2c1nc(-c1ccncn1)cc2=O)c1ccccc1,233 to 234
5,CCOC(=O)CCCc1sc(N)nc1-c1ccc(Cl)cc1,114 to 115
6,Cc1cc2cc(C#N)c(Cl)nc2s1,171 to 173
7,CC1(c2ccccc2)Cc2cc(OCC(=O)O)c(Cl)c(Cl)c2C1O (stereo not drawn),160 to 162
8,NCC(O)COc1ccc(-c2ccccc2)cc1 (stereo not drawn),138 to 147
9,Cc1cccc(OC2CN(C(N)=O)C2)c1,167 to 168
10,N#Cc1ccc(COc2ccc(C(=O)NC[C@@H](C(=O)NO)N3CCCCC3)cc2)cc1,134
11,O=[N+]([O-])c1ccc(OC2(c3ccccc3)CCNCC2)cc1,137 to 138
12,C=NC(c1cccc(Nc2n[nH]c3ncnc(Nc4cccc(Cl)c4)c23)c1)N(C)C (stereo not drawn),175 to 177
13,CN(Cc1ccccc1)c1nc(=O)c2cc(C(F)(F)F)cc([N+](=O)[O-])c2s1,120 to 124
14,COC(=O)c1ccc(C#Cc2ccccc2F)o1,106 to 108
15,COc1ccc(/C=C/C(=O)Nc2ccccc2C(=O)OCC(=O)NCC(C)(C)S)cc1OC,148 to 150
16,COC(=O)C(Oc1ccc(Cl)cc1)c1ccc(Oc2ccc(S(C)(=O)=O)cc2)cc1 (stereo not drawn),182 to 183
17,CNC(=O)c1ccc(N2CCN(Cc3cc(C)c4c(c3)NC(=O)C(C)O4)CC2)c(C)c1 (stereo not drawn),113 to 120
18,CCOC(=O)C1=C(N(C)C)N=C(C)C(C(=O)OCC)C1c1ccccc1C#N (stereo not drawn),129
19,COc1ccc2[nH]c(C3CCC(c4ccccc4)(N(C)C)CC3)c(C)c2c1 (stereo not drawn),156 to 163
20,CCc1c(N)nc(-c2ccc(C(F)(F)F)cc2)nc1C(=O)OC,123 to 124
21,Cc1ncn(Nc2ccc(F)cc2)c1-c1ccccc1,155
22,O=C1NC(=O)C(Cc2ccc(S(=O)(=O)CCCc3ccccc3)cc2)S1 (stereo not drawn),126 to 127
23,COc1ncc(C=O)cc1Cl,152
24,CC(C)Oc1cc(C(=O)O)n(Cc2ncc(C(F)(F)F)cc2Cl)n1,124 to 125
25,Cc1cc(=O)c(C(=O)Nc2cccc(C)c2C)c(C)o1,174 to 176

row,Structure (SMILES),melting point [°C]
1,OC1C(COC2CC2)OC(n2cnc3c(NC4CCCC4)nc(Cl)nc32)C1O (stereo not drawn),104 to 106
2,O=S(=O)(c1ccccc1)c1ccc(-c2ccccc2)s1,115 to 116
3,O=C1C(=O)N(c2ccc(Cl)cc2[N+](=O)[O-])C(=O)N1c1cccc(Cl)c1,133
4,CC(=O)Nc1ccc2[nH]c(CO)cc2c1,161
5,CCOC(=O)c1cc2cc(-c3ccccc3)ccc2o1,109 to 110
6,Cc1ccccc1-c1ccc(C(=O)N2Cc3ccc(C(=O)NCc4csc(-c5ccc(Cl)cc5)n4)n3Cc3ccccc32)cc1C,61 to 64
7,O=C(OCC(Cl)(Cl)Cl)Oc1cc2occ(C(=O)O)c(=O)c2cc1OC(=O)OCC(Cl)(Cl)Cl,166 to 167
8,CCc1cn(C[C@@H](C)O)c2cc(Cl)c(F)cc12,112 to 114
9,CC1(C)COc2cc(F)c(F)cc2C(O)(c2ccccn2)C1 (stereo not drawn),93
10,O=S(=O)(O)c1ccc(Nc2ncnc3ccc(Cl)cc23)cc1,> 300
11,CC(CCC(=O)O)(c1ccc(OCc2ccc3ccccc3c2)cc1)c1ccc(OCc2ccc3ccccc3n2)cc1 (stereo not drawn),64 to 68
12,OCC1Cc2ccccc2OC1CO (stereo not drawn),82 to 85
13,Nc1nc(N)c2nc(-c3cccc(O)c3)cnc2n1,> 300
14,CC(O)C=Cc1ccc2c(c1)Cc1ccccc1-2 (stereo not drawn),153
15,CC(C)(C)c1ccc(Sc2cc(C(=O)O)ccc2C(=O)O)cc1,325 to 326
16,Cc1ccc(S(=O)(=O)N(C)c2ccc(C)c([N+](=O)[O-])c2)cc1,104 to 106
17,C=Cc1ncc2c(c1COC)c1c(OCc3ccccc3)cccc1n2S(=O)(=O)c1ccc(C)cc1,141 to 143
18,O=C(Nc1ccc(Cl)c(C(F)(F)F)c1)N1COc2cc(OCc3ccccc3)ccc21,135 to 136
19,c1ccc2nc(COc3cccc4cccnc34)ccc2c1,95 to 96
20,O=C1c2c(O)cccc2C(O)(c2cccs2)c2cccc(O)c21,191 to 192
21,O=C(Cn1c(-c2ccc(Cl)cc2)nc2ncccc21)c1ccccc1,262 to 263
22,CCOC(=O)c1cn(C2CC2)c2c(CN3CCCC3)c(N3CCOCC3)c(F)cc2c1=O,227 to 232
23,CCCc1nc(C(=O)CC)c(C#N)n1C(c1ccccc1)(c1ccccc1)c1ccccc1,96
24,O=C(O)c1ccc(N2C(=O)c3ccc([N+](=O)[O-])cc3C2=O)cc1,331 to 332
25,COc1ccc(-c2cc(=O)c3ccc(OCC(O)CNC(C)C)cc3o2)cc1OC (stereo not drawn),144 to 145

row,Structure (SMILES),melting point [°C]
1,Cc1oc(-c2ccccc2)nc1CCc1ccc(CCCC2SC(=O)NC2=O)cc1 (stereo not drawn),99 to 100
2,CCOC(=O)NCCc1cccc(-c2ccnc3c(C#N)cnn23)c1,133 to 135
3,O=S1(=O)N=C(NC2CC2)Nc2cc(Cl)sc21,272 to 273
4,Fc1ccc(-c2nn3c(c2-c2ccncc2)NNCC3)cc1,233 to 235
5,CN(C)CCCN1c2ccccc2C(c2ccccc2Cl)=Nc2cccnc21,104 to 106
6,CCOC(=O)C(NC(C)=O)(C(=O)OCC)C1=Nc2ccc(Cl)cc2C(c2ccccc2Cl)=NC1,153 to 155
7,Clc1cccc(Oc2ccc(OCc3ccc(Br)s3)cc2)n1,78 to 80
8,Cc1cc(-c2ccc(C(F)(F)F)cc2)nc(-c2ccnc(-c3cccc(S(N)(=O)=O)c3)c2)c1,238
9,CC(C)=CCOc1ccc(C(=O)C=Cc2cccc([N+](=O)[O-])c2)c(O)c1,125 to 126
10,CC#CCOc1ccc(S(=O)(=O)C(C(=O)NO)c2ccc(Br)cc2)cc1 (stereo not drawn),187
11,CC(=O)OCc1c(C)n(Cc2ccccc2)c2c(OCc3ccc(F)cc3)nncc12,109 to 110
12,Cn1nc(C(F)(F)F)cc1Oc1cccc(-c2nc(C(F)(F)F)no2)n1,91 to 93
13,O=[N+]([O-])N=C1NC(O)CN1Cc1ccc(Cl)nc1 (stereo not drawn),170
14,Cc1cc(C)c2c(=O)[nH]c(-c3cc(C)c(OCCO)c(C)c3)nc2c1,260 to 261
15,OCCCc1nc(COc2ccc(CCCn3ccnc3)cc2)co1,63 to 64
16,CCOC(=O)C=Cc1ccc(F)cc1F,40 to 40.5
17,NC1=CC=C2C=c3c(cnn3-c3ccccc3)=C2C1=O,200 to 202
18,O=c1[nH]c2ncc(-c3cccc(-c4nnn[nH]4)c3)nc2n1CC1CCCCC1,248 to 250
19,Nc1ccc(Sc2cccc3c2C(=O)c2cccc(Sc4ccc(N)cc4)c2C3=O)cc1,364 to 365
20,COC1C(O)C(CO)OC1n1cnc2c(NC3CCCCC3)ncnc21 (stereo not drawn),88 to 91
21,C[C@H](O)C#Cc1cc(CN2CCOCC2)cc2c(=O)c(C(=O)NCc3ccc(Cl)cc3)cn(C)c12,158 to 161
22,COCC(=O)Nc1ccc2ncnc(Nc3cccc(Cl)c3)c2c1,177 to 180
23,NNC(=S)c1ccc2ccccc2c1,166 to 167
